Here are results for 3 compounds from patent publication US10603289B2, “Process for the manufacture of ajoene derivatives” (DANMARKS TEKNISKE UNIVERSITET, priority 2010, dated 2020).

One experiment concerns P. aeruginosa PAO1. The format is in vivo. The following applies: day three post-infection; E:Z 1:4 (FIG. 8). The protocol:
Mice were sacrificed on day one or day three post-infection and the contents of bacteria in the lungs were determined. Open squares indicate bacterial lung content per lung for each individual mouse. The median values are indicated with a filled black square. The statistic significance of difference in clearance was tested by a Mann-Whitney U test (analysis of nonparametric data) and p-values for the difference at day one and day three were 0.9 and 0.002 respectively.
In this study ajoene was administered prophylactic and subsequently continued after infection. Injections were given subcutaneous in the peritoneum. We performed three individual in vivo treatment experiments with ajoene in the mouse model of pulmonary infection using the P. aeruginosa PAO1. BALB/c mice were intracheally challenged (at day 0) with alginate beads containing 1.5×10^8 CFU/ml P. aeruginosa. The two groups of mice were either untreated (placebo) or treated with ajoene 25 μg/g mouse once a day. The mice were given two days of prophylactic treatment or placebo prior to bacterial challenge. Treatment was continued for three days. […] When combining the experiments a significant difference on day three was seen (p<0.002) with a 500 fold difference in clearance between the groups (FIG. 7). This is concordant with the results obtained by Bjarnsholt et al (2005) in a similar lung infection model in with raw garlic extract was used as treatment [T. Bjarnsholt et al., Microbiology, 2005, 151, p. 3873-3880].
This highlights that a synthesis providing a sufficiently pure “crude” ajoene product is essential in order to avoid the use of HPLC purification, as this step has a detrimental effect on biological activity. […] (E,Z) ajoene having an E:Z ratio of 1:4 was used.

Experiment [1] concerns biofilms of P. aeruginosa PAO1. In words: In vitro flow cell biofilm killing, live dead stains and CSLM. Format: cell-based. The protocol:
Dead cells are stained with the DNA stain PI (Dark grey/black). The biofilm were visualized with CSLM. C) Implant model treated with ajoene and tobramycin.
3873-3880]. It was however unknown what was the active ingredient in the garlic extract. Thus. biofilms of P. aeruginosa strain were either grown in the presence or absence of 100 μg/ml ajoene. At day three the biofilms were treated with 10 μg/ml tobramycin for 24 hours. […] 10 μg/ml tobramycin was therefore chosen for the present study.

The subject of a further experiment is wild-type P. aeruginosa. The experiment can be described thus: Foreign-body (silicone tube implant) infection model. Format: in vivo, mice. The note with it: CFU per implant 72 hours after insertion. The protocol: To examine the effect of a combination treatment with ajoene and tobramycin in vivo we used an foreign-body infection model [L. D. Christensen et al., Microbiology, 2007, 153, p. 2312-2320]. Silicone tube implants with a size of 4 mm (inner diameter 4 mm/outer diameter 6 mm) pre-colonized with wild-type P. aeruginosa, were inserted into the peritoneal cavity of mice. Treatments were injected subcutaneously every 24 hours, where ajoene and tobramycin treatment were initiated two days pre-insertion and 24 hours post-insertion, respectively. 72 hours after insertion the implants were removed from the mice and the number of colony-forming units per implant was determined. […] (E,Z) ajoene having an E:Z ratio of 1:4 was used.

On to `C=CCSSC=CC[S+]([O-])CC=C` (centres unmarked) [95-99.5% purity ajoene], for which, in the experiment with P. aeruginosa PAO1, the “clearing the pulmonary infection, by ajoene purity” value is “effective at clearing the pulmonary infection”.

For the compound `NC[C@H]1O[C@H](O[C@H]2[C@H](O)[C@@H](O[C@H]3O[C@H](CO)[C@@H](O)[C@H](N)[C@H]3O)[C@H](N)C[C@@H]2N)[C@H](N)C[C@@H]1O` [tobramycin], the “extent of killing, comparison of tobramycin concentrations” value in experiment [1] (prior treatment study, 10 μg/ml, 100 μg/ml or 340 μg/ml) was “no difference in the extent of killing”. Also, in experiment [1] (tobramycin or ajoene only), the “killing of the biofilm bacteria, single agent” value is “no or only minor killing”. The “clearing of implants, single treatment versus placebo group” value in the experiment with wild-type P. aeruginosa was “significant difference in clearing”.

On to `C=CCSSC=CC[S+]([O-])CC=C` (centres unmarked) [very high purity ajoene], for which the “clearing the pulmonary infection, by ajoene purity” value with P. aeruginosa PAO1 was “not effective at clearing the pulmonary infection”.
